Where two headings read alike, the source gives them in different places.
Columns and labels:
Assay type in all cases: biochemical
Lck = molecular target: T1, Lck (Homo sapiens, UniProt P06239); test: Kinase inhibition assay (33P transfer), Lck; settings: read-out: Lck-1
T1 construct: Kinases are expressed as either kinase domains or full length constructs; made in house
How it was run: (§1)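 Liquid scintillation counting of 33P on plate-bound synthetic substrates gives kinase activity. Plates are washed in 0.5% phosphoric acid first; kinases are tagged recombinant proteins from E. coli or baculovirus-infected High Five cells.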

Lyn = molecular target: T2, Lyn (Homo sapiens, UniProt P07948); test: Kinase inhibition assay (33P transfer), Lyn; settings: Table 6, Lyn-1 kinase inhibition class
T2 construct: Kinases are expressed as either kinase domains or full length constructs; made in house
How it was run: (§2)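 IC50: inhibitor concentration lowering 33P incorporation into immobilised substrate by 50%. Label transferred from ATP to poly(Glu,Tyr) 4:1 or poly(Arg,Ser) 3:1 is measured after a 0.5% phosphoric acid wash by liquid scintillation.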

Src = molecular target: T3, Src (Homo sapiens, UniProt P12931); test: Kinase inhibition assay (33P transfer), Src; settings: Table 6, Src-1 kinase inhibition class
T3 construct: Kinases are expressed as either kinase domains or full length constructs; made in house
How it was run: as §2

Fyn = molecular target: T4, Fyn (Homo sapiens, UniProt P06241); test: Kinase inhibition assay (33P transfer), Fyn; settings: read-out: Fyn-1
T4 construct: Kinases are expressed as either kinase domains or full length constructs; made in house
How it was run: as §2

Zap-70 = molecular target: T5, Zap-70 (Homo sapiens, UniProt P43403); test: Kinase inhibition assay (33P transfer), Zap-70; settings: read-out: Zap-1
T5 construct: Kinases are expressed as either kinase domains or full length constructs; made in house
T5 sequence (P43403 1-619): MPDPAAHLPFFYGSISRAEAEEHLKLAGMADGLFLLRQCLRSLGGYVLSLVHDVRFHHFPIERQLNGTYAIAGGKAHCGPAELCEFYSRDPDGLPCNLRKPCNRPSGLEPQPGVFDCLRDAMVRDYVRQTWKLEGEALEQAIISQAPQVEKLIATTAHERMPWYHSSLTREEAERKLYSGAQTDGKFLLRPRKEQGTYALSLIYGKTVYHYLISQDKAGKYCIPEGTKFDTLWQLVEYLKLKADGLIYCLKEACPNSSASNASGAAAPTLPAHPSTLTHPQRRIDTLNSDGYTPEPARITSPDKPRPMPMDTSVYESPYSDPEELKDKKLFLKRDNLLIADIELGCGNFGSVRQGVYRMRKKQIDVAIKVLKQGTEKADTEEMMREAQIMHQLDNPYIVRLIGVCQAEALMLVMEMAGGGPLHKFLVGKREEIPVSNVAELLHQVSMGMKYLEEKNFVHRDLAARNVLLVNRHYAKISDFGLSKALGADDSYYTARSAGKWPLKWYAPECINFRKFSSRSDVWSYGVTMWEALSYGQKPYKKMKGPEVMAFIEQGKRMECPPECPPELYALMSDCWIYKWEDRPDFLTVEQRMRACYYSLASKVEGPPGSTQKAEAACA
How it was run: as §1

Itk = molecular target: T6, Itk (Homo sapiens, UniProt Q08881); test: Kinase inhibition assay (33P transfer), Itk; settings: read-out: Itk-1
T6 construct: Kinases are expressed as either kinase domains or full length constructs; made in house
T6 sequence (Q08881 1-620): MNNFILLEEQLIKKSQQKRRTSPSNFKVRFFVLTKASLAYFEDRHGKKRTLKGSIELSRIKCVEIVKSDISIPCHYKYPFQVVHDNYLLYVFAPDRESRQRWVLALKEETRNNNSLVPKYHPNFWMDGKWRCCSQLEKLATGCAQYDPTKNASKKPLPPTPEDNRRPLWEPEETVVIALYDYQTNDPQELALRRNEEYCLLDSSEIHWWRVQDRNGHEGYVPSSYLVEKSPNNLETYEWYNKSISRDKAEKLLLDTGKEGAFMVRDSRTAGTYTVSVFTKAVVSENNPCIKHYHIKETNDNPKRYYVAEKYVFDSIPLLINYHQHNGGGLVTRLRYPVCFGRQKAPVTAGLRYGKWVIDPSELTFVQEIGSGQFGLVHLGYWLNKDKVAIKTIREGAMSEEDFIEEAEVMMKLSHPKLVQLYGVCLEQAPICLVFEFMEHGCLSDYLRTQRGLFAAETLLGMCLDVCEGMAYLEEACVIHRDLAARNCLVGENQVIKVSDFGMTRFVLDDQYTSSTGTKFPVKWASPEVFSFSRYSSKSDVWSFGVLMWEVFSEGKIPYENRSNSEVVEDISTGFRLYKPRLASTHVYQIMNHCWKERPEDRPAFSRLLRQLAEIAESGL
How it was run: as §2

EGFR = molecular target: T7, EGFR (Homo sapiens, UniProt P00533); test: Kinase inhibition assay (33P transfer), EGFR; settings: Table 2, kinase inhibition class; read-out: EGFR-1
T7 construct: Kinases are expressed as either kinase domains or full length constructs; made in house
How it was run: as §2

ErbB2 = molecular target: T8, ErbB2 (Homo sapiens, UniProt P04626); test: Kinase inhibition assay (33P transfer), ErbB2; settings: read-out: ErbB2-2
T8 construct: Kinases are expressed as either kinase domains or full length constructs; made in house
How it was run: as §2

Kdr = molecular target: T9, Kdr (Homo sapiens, UniProt P35968); test: Kinase inhibition assay (33P transfer), Kdr; settings: read-out: KDR-1
T9 construct: Kinases are expressed as either kinase domains or full length constructs; made in house
How it was run: as §1

Flt-1 = molecular target: T10, Flt-1 (Homo sapiens, UniProt P17948); test: Kinase inhibition assay (33P transfer), Flt-1
T10 construct: Kinases are expressed as either kinase domains or full length constructs; made in house
How it was run: as §2

Tek = molecular target: T11, Tek (Homo sapiens, UniProt Q02763); test: Kinase inhibition assay (33P transfer), Tek; settings: read-out: Tek-1
T11 construct: Kinases are expressed as either kinase domains or full length constructs; made in house
How it was run: as §2

c-Met = molecular target: T12, c-Met (Homo sapiens, UniProt P08581); test: Kinase inhibition assay (33P transfer), c-Met; settings: Table 2, kinase inhibition class; read-out: Met-1
T12 construct: Kinases are expressed as either kinase domains or full length constructs; made in house
How it was run: as §2

AKT = molecular target: T13, AKT (Homo sapiens, UniProt Q9Y243); test: Kinase inhibition assay (33P transfer), AKT; settings: Table 2, kinase inhibition class; read-out: AKT3-1
T13 construct: Kinases are expressed as either kinase domains or full length constructs; made in house
How it was run: as §1

IGFR-1 [1] = molecular target: T14, IGFR-1 (Homo sapiens, UniProt P08069); test: Kinase inhibition assay (33P transfer), IGFR-1; settings: Table 2, kinase inhibition class
T14 construct: Kinases are expressed as either kinase domains or full length constructs; made in house

IGFR-1 [2] = molecular target: T14, IGFR-1; test: Kinase inhibition assay, IGFR-1 (Table 2); settings: Table 2, kinase inhibition class
PDGFRB [3] = molecular target: T15, PDGFRB (Homo sapiens, UniProt P09619); test: Kinase inhibition assay (33P transfer), PDGFRB; settings: read-out: PDGFRB-1
T15 construct: Kinases are expressed as either kinase domains or full length constructs; made in house

PDGFRB [4] = molecular target: T15, PDGFRB; test: Kinase inhibition assay (33P transfer), PDGFRB; settings: read-out: PDGFRB-1; remark: listed apart in the source
Hck-1 = molecular target: T16, Hck-1 (Homo sapiens, UniProt P08631); test: Kinase inhibition assay (33P transfer), Hck; settings: Table 6, Hck-1 kinase inhibition class
T16 construct: Kinases are expressed as either kinase domains or full length constructs; made in house

ErbB4 = molecular target: T17, ErbB4 (Homo sapiens, UniProt Q15303); test: Kinase inhibition assay (33P transfer), ErbB4; settings: read-out: ErbB4-1
T17 construct: Kinases are expressed as either kinase domains or full length constructs; made in house

FGFR1 = molecular target: T18, FGFR1 (Homo sapiens, UniProt P11362); test: Kinase inhibition assay (33P transfer), FGFR1; settings: read-out: FGFR1-1
T18 construct: Kinases are expressed as either kinase domains or full length constructs; made in house

T13 sequence (Q9Y243 whole entry, the tested form may be a part): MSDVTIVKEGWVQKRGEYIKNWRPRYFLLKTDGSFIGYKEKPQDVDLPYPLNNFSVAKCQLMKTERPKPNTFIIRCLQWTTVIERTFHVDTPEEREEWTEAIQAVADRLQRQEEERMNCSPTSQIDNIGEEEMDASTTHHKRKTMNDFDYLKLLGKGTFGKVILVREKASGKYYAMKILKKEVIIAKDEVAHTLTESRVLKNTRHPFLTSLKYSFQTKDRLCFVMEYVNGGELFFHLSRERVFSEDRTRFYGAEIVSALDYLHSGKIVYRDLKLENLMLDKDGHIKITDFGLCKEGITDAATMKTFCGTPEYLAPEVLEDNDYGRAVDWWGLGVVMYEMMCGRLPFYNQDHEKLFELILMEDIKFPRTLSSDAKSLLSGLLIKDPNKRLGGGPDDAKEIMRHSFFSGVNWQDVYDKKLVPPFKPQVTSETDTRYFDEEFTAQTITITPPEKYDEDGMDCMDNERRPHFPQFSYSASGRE
T3 sequence (P12931 whole entry, species assumed, the tested form may be a part): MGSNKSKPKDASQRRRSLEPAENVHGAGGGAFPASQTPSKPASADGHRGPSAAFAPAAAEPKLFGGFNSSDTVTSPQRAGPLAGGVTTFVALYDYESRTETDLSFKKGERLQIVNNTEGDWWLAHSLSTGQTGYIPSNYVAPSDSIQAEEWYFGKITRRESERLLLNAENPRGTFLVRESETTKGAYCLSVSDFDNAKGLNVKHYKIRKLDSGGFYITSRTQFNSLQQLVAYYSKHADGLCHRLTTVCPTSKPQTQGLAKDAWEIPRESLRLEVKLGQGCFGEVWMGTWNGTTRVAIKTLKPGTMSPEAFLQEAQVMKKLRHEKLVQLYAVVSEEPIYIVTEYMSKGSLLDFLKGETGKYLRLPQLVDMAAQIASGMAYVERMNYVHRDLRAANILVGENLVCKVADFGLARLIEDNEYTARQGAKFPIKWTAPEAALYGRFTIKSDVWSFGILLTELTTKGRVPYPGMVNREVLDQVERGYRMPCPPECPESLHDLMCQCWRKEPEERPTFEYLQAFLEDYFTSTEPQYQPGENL
T15 sequence (P09619 33-1106, species assumed): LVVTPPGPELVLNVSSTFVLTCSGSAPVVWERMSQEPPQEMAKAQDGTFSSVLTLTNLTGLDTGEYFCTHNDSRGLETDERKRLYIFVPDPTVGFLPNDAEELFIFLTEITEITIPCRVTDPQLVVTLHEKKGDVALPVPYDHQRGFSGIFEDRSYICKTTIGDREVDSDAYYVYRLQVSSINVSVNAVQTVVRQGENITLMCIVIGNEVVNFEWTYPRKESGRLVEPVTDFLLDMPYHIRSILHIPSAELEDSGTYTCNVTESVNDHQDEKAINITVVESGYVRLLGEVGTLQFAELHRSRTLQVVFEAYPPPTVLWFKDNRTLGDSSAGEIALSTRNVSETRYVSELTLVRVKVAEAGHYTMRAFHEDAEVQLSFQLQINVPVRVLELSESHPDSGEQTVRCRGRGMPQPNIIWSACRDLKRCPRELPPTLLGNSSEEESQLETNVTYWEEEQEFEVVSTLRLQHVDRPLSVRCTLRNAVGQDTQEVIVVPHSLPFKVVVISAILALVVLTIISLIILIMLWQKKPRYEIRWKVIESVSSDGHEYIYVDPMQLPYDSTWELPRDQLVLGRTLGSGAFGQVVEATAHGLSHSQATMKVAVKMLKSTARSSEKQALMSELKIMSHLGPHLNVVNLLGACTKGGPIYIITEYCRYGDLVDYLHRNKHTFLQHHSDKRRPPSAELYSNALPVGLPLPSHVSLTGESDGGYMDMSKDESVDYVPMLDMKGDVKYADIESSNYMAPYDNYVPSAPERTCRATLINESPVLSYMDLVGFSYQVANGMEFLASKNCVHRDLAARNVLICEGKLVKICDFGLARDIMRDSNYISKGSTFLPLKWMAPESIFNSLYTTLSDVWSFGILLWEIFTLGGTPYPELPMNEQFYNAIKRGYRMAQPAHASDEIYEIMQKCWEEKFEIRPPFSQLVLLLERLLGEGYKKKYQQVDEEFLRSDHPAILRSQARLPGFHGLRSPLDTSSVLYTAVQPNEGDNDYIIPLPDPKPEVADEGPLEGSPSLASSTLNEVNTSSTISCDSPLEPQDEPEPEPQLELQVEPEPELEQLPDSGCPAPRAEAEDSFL
T10 sequence (P17948 27-1338, species assumed): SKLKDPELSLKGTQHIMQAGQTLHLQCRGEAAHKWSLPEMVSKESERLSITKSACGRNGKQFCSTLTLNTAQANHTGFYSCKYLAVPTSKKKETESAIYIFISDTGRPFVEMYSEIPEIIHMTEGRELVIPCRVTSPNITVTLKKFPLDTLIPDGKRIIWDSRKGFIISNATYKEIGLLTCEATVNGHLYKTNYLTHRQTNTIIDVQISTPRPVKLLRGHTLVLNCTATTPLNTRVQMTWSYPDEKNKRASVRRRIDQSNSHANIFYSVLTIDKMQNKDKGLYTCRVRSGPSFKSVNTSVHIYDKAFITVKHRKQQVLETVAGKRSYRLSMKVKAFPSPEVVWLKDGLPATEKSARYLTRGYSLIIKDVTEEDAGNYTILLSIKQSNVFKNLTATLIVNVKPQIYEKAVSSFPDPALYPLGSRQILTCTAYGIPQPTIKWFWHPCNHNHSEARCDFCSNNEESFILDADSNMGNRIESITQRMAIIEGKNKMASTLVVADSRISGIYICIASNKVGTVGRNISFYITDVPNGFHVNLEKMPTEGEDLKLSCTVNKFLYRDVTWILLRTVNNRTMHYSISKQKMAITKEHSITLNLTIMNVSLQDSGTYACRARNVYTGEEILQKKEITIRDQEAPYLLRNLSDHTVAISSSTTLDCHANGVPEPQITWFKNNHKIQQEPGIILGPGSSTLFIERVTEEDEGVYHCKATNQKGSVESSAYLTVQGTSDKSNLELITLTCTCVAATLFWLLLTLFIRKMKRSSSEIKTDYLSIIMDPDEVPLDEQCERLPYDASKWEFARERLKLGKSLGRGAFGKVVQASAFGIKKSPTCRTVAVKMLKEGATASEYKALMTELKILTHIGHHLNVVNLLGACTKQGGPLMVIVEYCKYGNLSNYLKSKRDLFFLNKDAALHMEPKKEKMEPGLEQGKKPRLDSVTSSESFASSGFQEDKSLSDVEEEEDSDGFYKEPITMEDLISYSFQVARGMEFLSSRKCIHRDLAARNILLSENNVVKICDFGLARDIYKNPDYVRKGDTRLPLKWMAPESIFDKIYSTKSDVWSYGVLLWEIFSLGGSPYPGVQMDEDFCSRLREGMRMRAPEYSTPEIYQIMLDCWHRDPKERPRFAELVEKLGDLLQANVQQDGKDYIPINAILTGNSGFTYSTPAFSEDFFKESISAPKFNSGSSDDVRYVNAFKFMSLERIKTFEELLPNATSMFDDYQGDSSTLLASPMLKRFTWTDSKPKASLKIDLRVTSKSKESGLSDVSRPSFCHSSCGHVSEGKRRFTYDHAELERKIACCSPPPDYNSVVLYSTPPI
T12 sequence (P08581 25-1390): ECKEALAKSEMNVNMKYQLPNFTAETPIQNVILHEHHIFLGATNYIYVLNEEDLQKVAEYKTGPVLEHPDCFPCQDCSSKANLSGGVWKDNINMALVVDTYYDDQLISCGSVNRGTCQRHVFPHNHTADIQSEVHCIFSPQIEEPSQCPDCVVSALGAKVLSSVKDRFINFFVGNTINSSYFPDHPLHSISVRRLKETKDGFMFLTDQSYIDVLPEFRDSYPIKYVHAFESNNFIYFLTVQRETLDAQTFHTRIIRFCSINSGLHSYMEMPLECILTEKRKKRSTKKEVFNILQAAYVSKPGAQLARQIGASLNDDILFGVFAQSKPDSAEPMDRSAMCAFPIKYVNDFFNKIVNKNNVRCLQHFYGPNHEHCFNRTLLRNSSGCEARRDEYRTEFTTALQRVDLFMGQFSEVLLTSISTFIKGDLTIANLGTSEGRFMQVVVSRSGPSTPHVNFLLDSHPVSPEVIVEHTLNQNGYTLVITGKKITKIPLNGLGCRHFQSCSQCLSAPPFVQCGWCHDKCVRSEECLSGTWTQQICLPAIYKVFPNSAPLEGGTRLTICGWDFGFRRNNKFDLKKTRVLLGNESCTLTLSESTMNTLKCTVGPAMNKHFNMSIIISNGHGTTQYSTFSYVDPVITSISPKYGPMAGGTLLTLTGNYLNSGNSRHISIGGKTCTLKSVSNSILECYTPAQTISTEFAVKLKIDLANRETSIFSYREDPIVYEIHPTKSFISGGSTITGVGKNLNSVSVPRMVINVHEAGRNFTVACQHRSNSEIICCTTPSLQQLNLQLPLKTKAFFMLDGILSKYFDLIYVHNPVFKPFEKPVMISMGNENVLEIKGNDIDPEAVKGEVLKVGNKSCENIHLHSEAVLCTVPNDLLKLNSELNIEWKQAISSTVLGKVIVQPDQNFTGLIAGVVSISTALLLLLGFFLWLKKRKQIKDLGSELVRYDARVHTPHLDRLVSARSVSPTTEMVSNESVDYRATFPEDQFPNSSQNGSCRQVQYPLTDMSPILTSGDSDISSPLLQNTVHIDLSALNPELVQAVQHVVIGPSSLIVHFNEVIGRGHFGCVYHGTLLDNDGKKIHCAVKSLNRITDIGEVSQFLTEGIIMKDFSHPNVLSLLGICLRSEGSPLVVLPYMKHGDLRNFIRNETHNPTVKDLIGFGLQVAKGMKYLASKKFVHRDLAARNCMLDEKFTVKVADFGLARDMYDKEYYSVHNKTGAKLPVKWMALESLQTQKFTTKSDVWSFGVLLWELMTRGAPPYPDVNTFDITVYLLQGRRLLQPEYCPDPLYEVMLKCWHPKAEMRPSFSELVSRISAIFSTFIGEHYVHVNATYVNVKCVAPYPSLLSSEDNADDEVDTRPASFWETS

Row | Compound | IC50 (Lck; Table 3) [µM] | IC50 (Lyn) [µM] | IC50 (Src) [µM] | IC50 (Fyn) [µM] | IC50 (Zap-70; Table 3) [µM] | IC50 (Itk; Table 3) [µM] | IC50 (EGFR) [µM] | IC50 (Kdr; Table 3) [µM] | IC50 (Flt-1) [µM] | IC50 (Tek) [µM] | IC50 (c-Met) [µM] | IC50 (AKT) [µM] | IC50 (PDGFRB [3]) [µM] | IC50 (Hck-1) [µM] | IC50 (ErbB4) [µM] | IC50 (FGFR1) [µM] | also measured
1 | COc1cc(Nc2ncnc(-n3c(NCc4ccccn4)nc4ccccc43)n2)cc(OC)c1OC [Compound 414] | > 9.29 | > 9.29 | > 9.29 | 0.826 to 4.95 | > 9.29 | > 9.29 | > 9.29 | < 0.826 | < 0.826 | > 9.29 | > 9.29 | > 9.29 | < 0.826 | > 9.29 | > 9.29 | < 0.826 | IC50 (Lck): 0.826 to 4.95 µM; IC50 (Zap-70): > 9.29 µM; IC50 (Itk): > 9.29 µM; IC50 (ErbB2): > 9.29 µM; IC50 (Kdr): < 0.826 µM; IC50 (IGFR-1 [1]): > 9.29 µM; IC50 (IGFR-1 [2]): 7.22 to 9.29 µM; IC50 (PDGFRB [4]): < 0.826 µM
2 | COc1cc(Nc2ncnc(NC3CC3c3ccccc3)n2)cc(OC)c1OC (centres unmarked) [Compound 428] | < 1.02 | < 1.02 | 1.02 to 6.1 | 1.02 to 6.1 | > 11.4 | > 11.4 | < 1.02 | 6.1 to 8.9 | > 11.4 | > 11.4 | > 11.4 | > 11.4 | 1.02 to 6.1 | > 11.4 | 1.02 to 6.1 | 6.1 to 8.9 | IC50 (ErbB2): 1.02 to 6.1 µM; IC50 (IGFR-1 [1]): 1.02 to 6.1 µM
3 | COc1cc(Nc2ncnc(-n3ccc4cc(F)ccc43)n2)cc(OC)c1OC [Compound 441] | 6.07 to 8.85 | > 11.4 | > 11.4 | 1.01 to 6.07 | > 11.4 | > 11.4 | > 11.4 | < 1.01 | 1.01 to 6.07 | > 11.4 | > 11.4 | > 11.4 | < 1.01 | > 11.4 | > 11.4 | > 11.4 | –
4 | CC(=O)NCc1ccc(Nc2ncnc(Nc3cc(-c4ccco4)n[nH]3)n2)cc1 [Compound 443] | > 11.5 | 1.02 to 6.15 | 6.15 to 8.97 | 6.15 to 8.97 | > 11.5 | 1.02 to 6.15 | 1.02 to 6.15 | < 1.02 | 1.02 to 6.15 | > 11.5 | 1.02 to 6.15 | > 11.5 | 1.02 to 6.15 | > 11.5 | 1.02 to 6.15 | 1.02 to 6.15 | –
5 | COc1cc(Nc2ncnc(-n3c(N)nc4ccccc43)n2)cc(OC)c1OCCN1CCOCC1 [Compound 445] | < 0.812 | 0.812 to 4.87 | 0.812 to 4.87 | 0.812 to 4.87 | > 9.14 | 0.812 to 4.87 | > 9.14 | < 0.812 | < 0.812 | 7.11 to 9.14 | 0.812 to 4.87 | > 9.14 | < 0.812 | > 9.14 | > 9.14 | < 0.812 | –
6 | COc1cc(Nc2ncnc(-n3cc(CCO)c4ccccc43)n2)cc(OC)c1OC [Compound 463] | > 10.7 | 0.949 to 5.69 | 0.949 to 5.69 | < 0.949 | > 10.7 | > 10.7 | > 10.7 | < 0.949 | < 0.949 | > 10.7 | > 10.7 | > 10.7 | < 0.949 | > 10.7 | > 10.7 | < 0.949 | –
7 | COc1cc(Nc2ncnc(-n3c(N)nc4ccccc43)n2)cc(OCCN2CCOCC2)c1OC [Compound 466] | < 0.812 | < 0.812 | 0.812 to 4.87 | 0.812 to 4.87 | > 9.14 | 4.87 to 7.11 | > 9.14 | < 0.812 | < 0.812 | 7.11 to 9.14 | 0.812 to 4.87 | > 9.14 | < 0.812 | > 9.14 | > 9.14 | < 0.812 | –

— US7074789B2, “Kinase inhibitors” (Amgen Inc., priority 1999, dated 2006)
